# Results: patent US11911396B2, “Use of compound in preparation of drug for treating cerebral small vessel disease” (GUANGZHOU CELLPROTEK PHARMACEUTICAL CO., LTD, priority 2017, dated 2024)
# Key:
# Format in all cases: in vivo, cynomolgus monkeys
# TNF-α = assay: Western blot of TNF-α in prefrontal cortex brain tissue, acute hypobaric hypoxia model; settings: FIGS. 3A and 3B
# Description: (§1) FIG. 3. […] A. Protein expression of inflammatory factors IL-6, IL-1β and TNF-α in the brain tissue of the prefrontal cortex of cynomolgus monkeys; B. Statistics of protein relative gray scan values. NN: Normobaric Normoxia group (N=3); HH: Hypobaric Hypoxia group (N=3); HH+Triol: Hypobaric Hypoxia with Triol administration group (N=3); HH+PROG: Hypobaric Hypoxia with control drug administration group (N=3). The gray value was obtained by scanning with Image Lab software, and the relative value was obtained after normalizing with α-Tubulin. One-way ANOVA analysis and Dunnutt's t test were used to perform statistical tests, and in the latter each group was compared with the HH group, *, p<0.05; **, p<0.01.
# (§2) 1) Preparation of protein samples (see the instructions of M-PER protein lysate): After the cells had been processed for the specified time, the medium was aspirated and then washed with 4° C. pre-chilled PBS (0.01M pH7.2˜7.3) for 3 times. […] 2) BCA protein quantification (see the instructions of BCA protein quantification kit): corresponding components were added to a 96-well detection plate by the ratio of quantification reagent A solution:B solution:ddH2O:protein=100:2:7.5:5, and albumin standards diluted in gradient concentration were added to draw a standard curve. […] After the reaction, the absorbance of each well at a wavelength of 562 nm was detected using a microplate reader. […]
# IL-6 = assay: Western blot of IL-6 in prefrontal cortex brain tissue, acute hypobaric hypoxia model; settings: FIGS. 3A and 3B
# Description: as §1, §2
# Heme Oxygenase-1 (HO-1) = assay: Western blot of HO-1 in prefrontal cortex brain tissue, acute hypobaric hypoxia model; settings: after hypobaric hypoxia, FIG. 4
# Description: FIG. 4. Triol enhanced the clearance of free hemoglobin in brain tissue by up-regulating CD163 and Heme Oxygenase-1 (HO-1) protein levels. A. Protein expression of hemoglobin scavenger receptor CD163 and heme oxygenase HO-1 in the brain tissue of the prefrontal cortex of cynomolgus monkeys; B. Statistics of protein relative gray scan values. The gray value was obtained by scanning with Image Lab software, and the relative value was obtained after normalizing with α-Tubulin. NN: Normobaric Normoxia group (N=3); HH: Hypobaric Hypoxia group (N=3); HH+Triol: Hypobaric Hypoxia with Triol administration group (N=3); HH+PROG: Hypobaric Hypoxia with progesterone administration group (N=3). […]
# as §2
# IL-1β = assay: Western blot of IL-1β in prefrontal cortex brain tissue, acute hypobaric hypoxia model; settings: FIGS. 3A and 3B
# Description: as §1, §2
compound,measurement,setting,value
"C[C@@]12CCCC1C1C[C@@H](O)[C@@]3(O)C[C@@H](O)CC[C@]3(C)C1CC2 (stereo partly drawn) [Triol, 5α-androst-3β,5,6β-triol]",expression level of TNF-α,TNF-α,significantly reduced
same,expression level of IL-6,IL-6,significantly reduced
same,expression of HO-1,Heme Oxygenase-1 (HO-1),further up-regulated
same,expression level of IL-1β,IL-1β,significantly reduced
